Test results published in patent publication US20260137807A1, “COMPOSITIONS AND METHODS FOR DELIVERING A MACROMOLECULE TO A CELL” (AstraZeneca AB, priority 2022, published 2026).
“Also recorded” adds a separate entry of the source.

Legend:
[1] = system: anti-CD3/28 stimulated T cells; assay: Co-delivery of Cre recombinase, ex vivo editing of T cells; type: cell-based, mice
Experimental: The combination of Cre recombinase with Compound 4 was also tested in ex vivo editing of anti-CD3/28 stimulated T cells. […], then treated with 2.5 μM of Compound 4 with varying concentrations of Cre recombinase (50, 100, 200, 500 and 1000 nM), either on a U-plate with no mixing (T1) or mixed in a tube shaker during treatment (T2).

T-47D cells = assay: Co-delivery of Cre recombinase, in vitro editing GFP reporter; type: cell-based; conditions: for editing: 50 nM Cre
Description: Cre recombinase was co-administered with Compound 4 to assess improvement in editing efficiency in an in vitro reporter system in which edited cells express GFP. Total cell counts are shown as unfilled bars (FIG. 43A, left panel); viable cells are shown in light gray shaded bars (FIG. 43A, middle panel); edited cell counts are shown in green shaded bars, and edited cell percentage is shown as the dotted line (FIG. 43A, right panel).
The media change increased cell viability, as shown by the difference between the left and right panels of FIGS. 43B and 43C. […] Greater than 80% editing was observed when Cre protein was co-administered with 2 μM or 3 μM Compound 4 in the media changed condition, and 3 μM Compound 4 in the media unchanged condition.

[2] = Nanoparticle tracking analysis (NTA); type: physicochemical; conditions: 1 μm or 5 μm oligonucleotide incubated with 5 μm AZ4800 for 2 hours
Experimental: Many SSO transfection reagents work through complexation or association with the SSO. A nanoparticle tracking analysis (NTA) was performed to determine whether Compound 2 induced aggregation of oligonucleotides in cell media.
SSO was incubated in cell growth media with and without Compound 2 at 37° C. for 2 hours, mimicking the treatment plan shown in FIG. 10. Analysis was carried out with a Nanosight NS500 instrument running NTA 2.3 analytical software. A script that records 5×30 second videos in light-scatter mode was run with a camera level of 13. Analysis of the videos was then performed with screen gain set to 10 and a detection threshold at 7.

[3] = non-activated T cells, FIG. 45A

| SMILES | editing efficiency ([1]; activated T cells, 2.5 μM compound, FIG. 45C) | proliferative capacity ([1]; activated T cells, FIG. 45C) | editing [1, 3] | proliferation rate [1, 3] | editing efficiency (T-47D cells; 50 nM Cre protein, 0, 1, 2 or 3 μM compound, FIG. 43B) | editing (T-47D cells; 2 μM compound, media changed after 2 hours) | editing (T-47D cells; 3 μM compound, media changed after 2 hours) | editing (T-47D cells; 3 μM compound, media unchanged) | particle size profile of oligonucleotide in cell growth media [2] |
| --- | --- | --- | --- | --- | --- | --- | --- | --- | --- |
| COc1nn(C2CCNCC2)cc1Nc1ncc(F)c(-n2ccc3c(C#N)cccc32)n1 [Compound 4] | greater than 90% | without affecting proliferative capacity | highly edited | compromised | improved editing efficiency in T-47D cells in a dose-dependent manner | Greater than 80% | Greater than 80% | Greater than 80% |  |
| COc1nn(C2CCNCC2)cc1Nc1ncc(Cl)c(-n2ccc3c(C#N)cccc32)n1 [Compound 2] |  |  |  |  |  |  |  |  | No significant differences in particle size; also recorded: no significant changes in particle size profile |
